Measured values published in US20230265083A1, “Heterocycle CDK Inhibitors And Their Use Thereof” (Prelude Therapeutics Incorporated, priority 2020, published 2023).

Key:
[1] = test system: H929 cells; assay: CellTiter-Glo Protocol (Proliferation); assay type: cell-based; conditions: Homo sapiens, NCI-H929, 24 hours, read-out: PROLIFERATION_CTG_H929 IC50
Experimental: CellTiter-Glo® Protocol (Proliferation)
Dispense 10 μL aliquot of prepared H929 cells (1:1 ratio of cells: Trypan Blue (#1450013, Bio-Rad)) onto cell counting slide (#145-0011, Bio-Rad) and obtain cell density and cell viability using a cell counter (TC20, Bio-Rad). Remove appropriate volume of resuspended cells from culture flask to accommodate 4000 cells/well at 10 μL/well. Transfer H929 cells to 50 mL conical (#430290, Corning). Spin down at 1000 rpm for 5 min. using a tabletop centrifuge (SPINCHRON 15, Beckman). Discard supernatant and resuspend cell pellet in modified RPMI 1640 (#10-040-CV, Corning) cell culture media containing 10% FBS (F2422-500ML, Sigma), sodium pyruvate (100 mM) (#25-000-CL, Corning), HEPES buffer (1M) (#25-060-CL, Corning) and glucose (200 g/L) (A24940-01, Gibco) to a cell density of 400,000 cells/mL. Dispense 10 μL of resuspended H929 cells per well in 384-well small volume TC treated plate (#784080, Greiner Bio-one) using standard cassette (#50950372, Thermo Scientific) on Multidrop Combi (#5840310, Thermo Scientific) in laminar flow cabinet. Dispense compounds onto plates using a digital liquid dispenser (D300E, Tecan). Incubate plates in humidified tissue culture incubator at 37° C. for 24 hours. Add 10 μL of prepared CellTiTer-Glo® detection buffer (G7570, Promega) to each well of 384-well plate using small tube cassette (#24073295, Thermo Scientific) on Combi multi-drop, incubate at RT for 30-60 min. Read plates with a microplate reader (PheraStar, BMG Labtech) using 384 well luminescence mode. See Table B (Proliferation_CTG_H929).

[2] = target: T1, CDK4/Cyclin D1 (Homo sapiens, UniProt P11802); assay: CDK4/CyclinD1 Enzymatic Activity Assay (TR-FRET); assay type: biochemical; conditions: ATP 2 mM, recombinant CDK4/Cyclin D1 1 nM, read-out: CDK4_D1 IC50
T1 construct: purchased ProQinase; host or cells: insect cell
Experimental: CDK4/CyclinD1 Enzymatic Activity Assay
The inhibitory activity of compounds was evaluated in vitro using TR-FRET assay with white 384-well low volume microplate (Greiner Bio-One). CDK4/Cyclin D1 catalyzed phosphorylation of peptides in the presence and absence of compounds was measured and used in IC50 determination. Recombinant protein complex CDK4/Cyclin D1, expressed from insect cell, was purchased from ProQinase. Testing compounds were dissolved in DMSO at 1 mM and tested in 9-dose IC50 mode. The reaction mixture was prepared by mixing CDK4/CyclinD1 (1 nM final), ULight-4E-BP1 (100 nM final, Perkinelmer, TRF0128-D), and ATP (2 mM final) in assay buffer (20 mM of HEPES pH 7.4, 1 mM of EGTA, 0.05% BSA, 0.005% Tween 20, and 1 mM TCEP). The compound of interest in DMSO was added to each well in 3-fold serial dilution by the dispenser (TECAN D300E) to make a 9.9 μL of the reaction mixture. After 20 minutes of preincubation at room temperature, 0.1 μL MgCl2 (10 mM final) was added to initiate the reaction. Following a 45 minutes incubation at 37° C., the reaction was stopped by the addition of 2 μL of quenching buffer consisting of Lance detection buffer (Perkinelmer CR97-100C), LANCE Ultra Europium-anti-P-4E-BP1 (Perkinelmer, TRF0216-D), EDTA, and incubate at room temperature for additional 60 minutes in the dark. The reaction signal was measured by Envision multimode plate reader (PerkinElmer, 2102-0010). IC50 values were determined by fitting the data to the standard 4 parameters with Hill Slope using GraphPad Prism software.

[3] = target: T2, CDK2/Cyclin A2 (Homo sapiens, UniProt P24941); assay: CDK2/CyclinA2 Enzymatic Activity Assay (TR-FRET); assay type: biochemical; conditions: ATP 1 mM, recombinant CDK2/Cyclin A2 1 nM, read-out: CDK2_A2 IC50
T2 construct: purchased ProQinase; host or cells: insect cell
Experimental: CDK2/CyclinA2 Enzymatic Activity Assay
(§1) The inhibitory activity of compounds was evaluated in vitro using TR-FRET assay with white 384-well low volume microplate (Greiner Bio-One). CDK2/Cyclin A2 catalyzed phosphorylation of peptides in the presence and absence of compounds was measured and used in IC50 determination. Recombinant protein complex CDK2/Cyclin A2, expressed from insect cell, was purchased from ProQinase. Testing compounds were dissolved in DMSO at 1 mM and tested in 9-dose IC50 mode. The reaction mixture was prepared by mixing CDK2/CyclinA2 (1 nM final), ULight-4E-BP1 (50 nM final, Perkinelmer, TRF0128-D), and ATP (1 mM final) in assay buffer (20 mM of HEPES pH 7.4, 1 mM of EGTA, 0.05% BSA, 0.005% Tween 20, and 1 mM TCEP). The compound of interest in DMSO was added to each well in 3-fold serial dilution by the dispenser (TECAN D300E) to make a 9.9 μL of the reaction mixture. After 20 minutes preincubation at room temperature, 0.1 μL MgCl2 (10 mM final) was added to initiate the reaction. Following a 45 minutes incubation at 37° C., the reaction was stopped by addition of 2 μL of quenching buffer consisting of Lance detection buffer (Perkinelmer CR97-100C), LANCE Ultra Europium-anti-P-4E-BP1 (Perkinelmer, TRF0216-D), EDTA, and incubate at room temperature for additional 60 minutes in the dark. The reaction signal was measured by Envision multimode plate reader (PerkinElmer, 2102-0010). IC50 values were determined by fitting the data to the standard 4 parameters with Hill Slope using GraphPad Prism software.

[4] = target: T3, CDK9/Cyclin T1 (Homo sapiens, UniProt P50750); assay: CDK9/CyclinT1 Enzymatic Activity Assay (TR-FRET); assay type: biochemical; conditions: ATP 1 mM, recombinant CDK9/Cyclin T1 1 nM, read-out: CDK9_T1 IC50
T3 construct: purchased ProQinase; host or cells: insect cell
Experimental: CDK9/CyclinT1 Enzymatic Activity Assay
as §1, with “(Greiner Bio-One). CDK9/Cyclin T1 catalyzed phosphorylation” for “(Greiner Bio-One). CDK2/Cyclin A2 catalyzed phosphorylation”, “protein complex CDK9/Cyclin T1, expressed from” for “protein complex CDK2/Cyclin A2, expressed from”, “by mixing CDK9/CyclinT1 (1 nM” for “by mixing CDK2/CyclinA2 (1 nM”, “20 minutes of preincubation at” for “20 minutes preincubation at”, “stopped by the addition of” for “stopped by addition of”

T1 sequence (P11802 whole entry): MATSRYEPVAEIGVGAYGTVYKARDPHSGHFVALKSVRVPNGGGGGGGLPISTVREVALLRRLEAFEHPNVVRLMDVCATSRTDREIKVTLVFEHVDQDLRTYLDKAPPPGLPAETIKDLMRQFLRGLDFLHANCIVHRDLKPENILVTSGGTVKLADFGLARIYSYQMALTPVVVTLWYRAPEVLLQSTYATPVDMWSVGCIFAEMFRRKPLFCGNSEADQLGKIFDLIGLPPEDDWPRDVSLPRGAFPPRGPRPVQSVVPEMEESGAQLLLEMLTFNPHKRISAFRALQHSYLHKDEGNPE
T1 sequence (P24385 whole entry partner): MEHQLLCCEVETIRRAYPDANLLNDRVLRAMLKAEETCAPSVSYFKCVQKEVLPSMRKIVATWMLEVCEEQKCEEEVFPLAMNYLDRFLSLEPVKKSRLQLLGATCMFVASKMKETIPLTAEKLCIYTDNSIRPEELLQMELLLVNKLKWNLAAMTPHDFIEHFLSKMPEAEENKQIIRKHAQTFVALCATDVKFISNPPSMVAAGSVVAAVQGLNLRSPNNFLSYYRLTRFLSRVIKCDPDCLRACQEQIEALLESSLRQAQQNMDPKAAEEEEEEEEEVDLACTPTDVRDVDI
T3 sequence (P50750 whole entry): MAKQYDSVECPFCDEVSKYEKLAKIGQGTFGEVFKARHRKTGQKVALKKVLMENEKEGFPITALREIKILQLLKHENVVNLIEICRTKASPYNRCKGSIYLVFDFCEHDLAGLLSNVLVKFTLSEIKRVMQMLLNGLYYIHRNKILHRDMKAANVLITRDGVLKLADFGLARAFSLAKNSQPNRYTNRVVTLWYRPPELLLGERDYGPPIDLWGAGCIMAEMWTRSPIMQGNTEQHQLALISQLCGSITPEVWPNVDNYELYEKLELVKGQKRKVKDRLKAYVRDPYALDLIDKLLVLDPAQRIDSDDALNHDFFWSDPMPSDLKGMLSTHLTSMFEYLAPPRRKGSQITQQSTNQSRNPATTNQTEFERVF
T3 sequence (O60563 whole entry partner): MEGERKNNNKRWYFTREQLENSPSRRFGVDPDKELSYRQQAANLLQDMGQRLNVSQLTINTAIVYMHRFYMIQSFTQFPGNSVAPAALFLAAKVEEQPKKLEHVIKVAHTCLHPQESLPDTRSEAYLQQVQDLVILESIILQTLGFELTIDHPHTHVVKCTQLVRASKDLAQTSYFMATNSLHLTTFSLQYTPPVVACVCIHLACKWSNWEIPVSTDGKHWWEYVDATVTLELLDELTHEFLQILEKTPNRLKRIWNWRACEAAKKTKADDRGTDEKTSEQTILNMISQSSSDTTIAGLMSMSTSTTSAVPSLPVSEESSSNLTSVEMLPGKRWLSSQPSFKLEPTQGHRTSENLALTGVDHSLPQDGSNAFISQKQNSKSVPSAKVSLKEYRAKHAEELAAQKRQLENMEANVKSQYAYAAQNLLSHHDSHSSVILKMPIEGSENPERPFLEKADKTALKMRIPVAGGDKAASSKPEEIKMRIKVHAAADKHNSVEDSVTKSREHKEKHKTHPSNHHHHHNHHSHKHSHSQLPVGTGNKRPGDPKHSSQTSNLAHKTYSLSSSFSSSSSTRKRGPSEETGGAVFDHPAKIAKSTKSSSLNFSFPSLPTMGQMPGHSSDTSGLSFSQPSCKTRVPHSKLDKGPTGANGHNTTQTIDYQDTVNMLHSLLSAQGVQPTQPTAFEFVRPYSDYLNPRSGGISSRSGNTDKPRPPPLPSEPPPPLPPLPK

CC(=O)N[C@@H]1CCC[C@H](C(=O)Nc2cc(-c3cccc4c3CC(C)(C)N4)c(Cl)cn2)C1 [Example 5, (1S,3R)-3-acetamido-N-(5-chloro-4-(2,2-dimethylindolin-4-yl)pyridin-2-yl)cyclohexane-1-carboxamide]
IC50 [1]: 0.02 to 0.2 µM
IC50 [2]: 0.02 to 0.2 µM
IC50 [3]: > 1 µM
IC50 [4]: < 0.02 µM

CC(=O)N[C@@H]1CCC[C@H](C(=O)Nc2cc(-c3cccc4c3CCN4)c(Cl)cn2)C1 [Example 1, (1S,3R)-3-acetamido-N-(5-chloro-4-(indolin-4-yl)pyridin-2-yl)cyclohexane-1-carboxamide]
IC50 [1]: 0.02 to 0.2 µM
IC50 [2]: 0.2 to 1 µM
IC50 [4]: < 0.02 µM

N#CCC(=O)N[C@@H]1CCC[C@H](C(=O)Nc2cc(-c3cc(F)cc4c3OCCN4)c(Cl)cn2)C1 [Example 12, (1S,3R)—N-(5-chloro-4-(6-fluoro-3,4-dihydro-2H-benzo[b][1,4]oxazin-8-yl)pyridin-2-yl)-3-(2-cyanoacetamido)cyclohexane-1-carboxamide]
IC50 [2]: 0.02 to 0.2 µM
IC50 [3]: 0.2 to 1 µM
IC50 [4]: < 0.02 µM

CC1COc2c(cc(F)cc2-c2cc(NC(=O)[C@H]3CCC[C@@H](NC(=O)CC#N)C3)ncc2Cl)N1 (stereo partly drawn) [Example 13, (1S,3R)—N-(5-chloro-4-(6-fluoro-3-methyl-3,4-dihydro-2H-benzo[b][1,4]oxazin-8-yl)pyridin-2-yl)-3-(2-cyanoacetamido)cyclohexane-1-carboxamide]
IC50 [2]: 0.02 to 0.2 µM
IC50 [4]: < 0.02 µM

Cc1cnc(NC(=O)[C@H]2CCC[C@@H](NC(=O)CC#N)C2)cc1-c1cccc2c1OCC(C)(C)N2 [Example 7, (1S,3R)-3-(2-cyanoacetamido)-N-(4-(3,3-dimethyl-3,4-dihydro-2H-benzo[b][1,4]oxazin-8-yl)-5-methylpyridin-2-yl)cyclohexane-1-carboxamide]
IC50 [1]: 0.2 to 1 µM
IC50 [2]: > 1 µM
IC50 [3]: > 1 µM
IC50 [4]: 0.02 to 0.2 µM

CC(=O)N[C@@H]1CCC[C@H](C(=O)Nc2cc(-c3cccc4c3CCCN4)c(Cl)cn2)C1 [Example 3, (1S,3R)-3-acetamido-N-(5-chloro-4-(1,2,3,4-tetrahydroquinolin-5-yl)pyridin-2-yl)cyclohexane-1-carboxamide]
IC50 [1]: 0.02 to 0.2 µM
IC50 [2]: > 1 µM
IC50 [4]: 0.02 to 0.2 µM

CC1(C)COc2c(cccc2-c2cc(NC(=O)[C@H]3CCC[C@@H](NC(=O)CC#N)C3)ncc2Cl)N1 [Example 11, (1S,3R)—N-(5-chloro-4-(3,3-dimethyl-3,4-dihydro-2H-benzo[b][1,4]oxazin-8-yl)pyridin-2-yl)-3-(2-cyanoacetamido)cyclohexane-1-carboxamide]
IC50 [2]: > 1 µM
IC50 [4]: < 0.02 µM

CC(=O)N[C@@H]1CCC[C@H](C(=O)Nc2cc(-c3cccc4c3CC(C)(C)O4)c(Cl)cn2)C1 [Example 14, (1S,3R)-3-acetamido-N-(5-chloro-4-(2,2-dimethyl-2,3-dihydrobenzofuran-4-yl)pyridin-2-yl)cyclohexane-1-carboxamide]
IC50 [1]: 0.2 to 1 µM
IC50 [2]: > 1 µM
IC50 [4]: < 0.02 µM

CC1(C)Cc2cccc(-c3cc(NC(=O)[C@H]4CCC[C@@H](NC(=O)CC#N)C4)ncc3Cl)c2O1 [Example 15, (1S,3R)—N-(5-chloro-4-(2,2-dimethyl-2,3-dihydrobenzofuran-7-yl)pyridin-2-yl)-3-(2-cyanoacetamido)cyclohexane-1-carboxamide]
IC50 [2]: > 1 µM
IC50 [4]: < 0.02 µM

CC(=O)N[C@@H]1CCC[C@H](C(=O)Nc2cc(-c3cccc4c3OCCN4)c(Cl)cn2)C1 [Example 4, (1S,3R)-3-acetamido-N-(5-chloro-4-(3,4-dihydro-2H-benzo[b][1,4]oxazin-8-yl)pyridin-2-yl)cyclohexane-1-carboxamide]
IC50 [1]: 0.02 to 0.2 µM
IC50 [2]: > 1 µM
IC50 [4]: < 0.02 µM

CC(=O)N[C@@H]1CCC[C@H](C(=O)Nc2cc(-c3cccc4c3CC(C)N4)c(Cl)cn2)C1 (stereo partly drawn) [Example 2, (1S,3R)-3-acetamido-N-(5-chloro-4-(2-methylindolin-4-yl)pyridin-2-yl)cyclohexane-1-carboxamide]
IC50 [1]: 0.02 to 0.2 µM
IC50 [2]: 0.2 to 1 µM
IC50 [4]: < 0.02 µM

CC(=O)N[C@@H]1CCC[C@H](C(=O)Nc2cc(-c3cccc4c3OCC(C)(C)N4)c(Cl)cn2)C1 [Example 9, (1S,3R)-3-acetamido-N-(5-chloro-4-(3,3-dimethyl-3,4-dihydro-2H-benzo[b][1,4]oxazin-8-yl)pyridin-2-yl)cyclohexane-1-carboxamide]
IC50 [2]: > 1 µM
IC50 [4]: < 0.02 µM

Cc1cnc(NC(=O)[C@H]2CCC[C@@H](NC(=O)CC#N)C2)cc1-c1cccc2c1CC(C)(C)N2 [Example 6, (1S,3R)-3-(2-cyanoacetamido)-N-(4-(2,2-dimethylindolin-4-yl)-5-methylpyridin-2-yl)cyclohexane-1-carboxamide]
IC50 [2]: > 1 µM
IC50 [4]: < 0.02 µM

N#CCC(=O)N[C@@H]1CCC[C@H](C(=O)Nc2cc(-c3cccc4c3OCCN4)c(Cl)cn2)C1 [Example 10, (1S,3R)—N-(5-chloro-4-(3,4-dihydro-2H-benzo[b][1,4]oxazin-8-yl)pyridin-2-yl)-3-(2-cyanoacetamido)cyclohexane-1-carboxamide]
IC50 [2]: 0.02 to 0.2 µM
IC50 [4]: < 0.02 µM
